These results are taken from PubChem BioAssay AID624129 (Sanford-Burnham Center for Chemical Genomics, 2012).

The assay has as its target C-X-C chemokine receptor type 6 (Homo sapiens) (UniProt O00574). The assay can be described thus: CXCR6 receptor antagonists, dose response, cell-based, beta-arrestin, DiscoveRx, APJ panel, uHTS hits (AID 624129). Particulars: CXCR6 beta-arrestin (DiscoveRx) antagonist cell assay; for outcome: CXCR6, dose range 1; for inhibition: CXCR6, run 2, dose range 1, at 79 µM (top of the series).

Setting [1] is: CXCR6, dose range 1, mean IC50 across replicates.

Structures are written as SMILES. Activity calls are given as the source filed them. No rule for the calls is given here.

Sequence of C-X-C chemokine receptor type 6 (Homo sapiens) (O00574 whole entry, looked up): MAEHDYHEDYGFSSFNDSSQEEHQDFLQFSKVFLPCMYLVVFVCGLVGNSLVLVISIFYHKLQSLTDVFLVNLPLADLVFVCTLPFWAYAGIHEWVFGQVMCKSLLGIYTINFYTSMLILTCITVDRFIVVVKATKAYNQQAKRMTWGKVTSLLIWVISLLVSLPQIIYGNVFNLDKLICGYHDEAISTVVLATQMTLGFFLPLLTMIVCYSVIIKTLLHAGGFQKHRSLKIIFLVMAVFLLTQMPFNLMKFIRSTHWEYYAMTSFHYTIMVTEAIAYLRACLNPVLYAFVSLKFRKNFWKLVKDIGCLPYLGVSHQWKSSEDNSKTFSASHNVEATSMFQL

Consider `N#C/C(=C/c1ccc(-c2ccc([N+](=O)[O-])cc2)o1)C(=O)Nc1nc(-c2cccs2)cs1`, for which the outcome was inactive and the inhibition is 90.2%. The compound also yielded an IC50 under setting [1] of 38.1 µM. Moreover, for the setting “CXCR6, run 1, dose range 2”, the IC50 was determined as 44.7 µM. For the same compound, where the note is “CXCR6, run 2, dose range 2”, the IC50 was 31.5 µM.
On to `COc1ccc(-c2nn(C)c(=O)c3ccccc23)cc1NC(=O)Cn1nc(C)c2ccccc2c1=O`, for which the outcome was inactive and the inhibition worked out at 72.1%. Besides, the IC50 under setting [1] was found to be 34.5 µM. Under “CXCR6, run 1, dose range 2”, this compound returned an IC50 of 21.8 µM. Moreover, the IC50 (CXCR6, run 2, dose range 2) worked out at 47.2 µM.
For `CCOC(=O)c1cc([N+](=O)[O-])c([N+](=O)[O-])cc1NC(C)=O` the same measures were “inactive”, 110%, 15.1 µM, 14.8 µM and 15.5 µM.
Consider `CCC(C)c1ccc(O)c(NC(=S)NC(=O)c2cccs2)c1` (stereo not given), for which the outcome was inactive and the inhibition was 82.8%. Also, the IC50 under setting [1] stood at 11.8 µM. For the same compound, for the setting “CXCR6, run 1, dose range 2”, the IC50 stood at 15.4 µM. The same compound showed an IC50 (CXCR6, run 2, dose range 2) of 8.27 µM.
On the same counts, the results for `C=C1CCN([C@@H](Cc2ccccc2)C(=O)NCCC(C)C)S(=O)(=O)c2ccccc21` are “inactive”, 69.3%, 15.2 µM, 17.1 µM and 13.3 µM.
`Cc1ccccc1CS(=O)(=O)c1ncc(Cl)c(C(=O)Nc2ccc(F)cc2)n1`: the outcome was inactive and the inhibition was 109%. In addition, the IC50 under setting [1] was determined as 17.1 µM. This compound also came in with an IC50 (CXCR6, run 1, dose range 2) of 15.4 µM. The same compound registered an IC50 (CXCR6, run 2, dose range 2) of 18.9 µM.
For `CCC1=NN(C(=O)c2ccc([N+](=O)[O-])cc2)C(O)(c2ccccc2)C1` (stereo not given) the same measures were “inactive”, 91.7%, 44.8 µM, 25.2 µM and 64.4 µM.
On the same counts, the results for `O=C(NCc1cccnc1)/C(=C\c1ccc(-c2cccc(Cl)c2)o1)S(=O)(=O)c1ccccc1` are “inactive”, 88.9%, 13.8 µM, 11.9 µM and 15.7 µM.
For `Cc1ccc(NC(=O)c2nc(S(=O)(=O)Cc3ccccc3)ncc2Cl)cc1` the same measures were “inactive”, 111%, 15.3 µM, 15.2 µM and 15.5 µM.
Regarding `CCOC(=O)C1=C(C)NC2=C(C(=O)CC(c3cccs3)C2)C1c1cccs1` (stereo not given), the outcome was inactive and the inhibition came out at 70.4%. The same compound showed an IC50 under setting [1] of 24 µM. Moreover, where the note is “CXCR6, run 1, dose range 2”, the IC50 was found to be 26.3 µM. This compound had an IC50 (CXCR6, run 2, dose range 2) of 21.6 µM.
Turning to `O=C(Nc1ccccc1)c1ccc(Nc2c([N+](=O)[O-])cc([N+](=O)[O-])c3ccccc23)cc1`, the result was inactive and the inhibition was determined as 98.6%. Also, under setting [1], the IC50 was found to be 44.4 µM. Besides, where the note is “CXCR6, run 1, dose range 2”, the IC50 came out at 65.1 µM. For the same compound, the IC50 (CXCR6, run 2, dose range 2) was 23.6 µM.
Regarding `CN(C)/C=C/c1oc2ccc(O)cc2c1[N+](=O)[O-]`, the outcome was inactive and the inhibition was 93.1%. Further, the IC50 under setting [1] was 17.5 µM. Further, the IC50 (CXCR6, run 1, dose range 2) came out at 18.5 µM. For the same compound, the IC50 (CXCR6, run 2, dose range 2) is 16.4 µM.
On to `C=CC[C@H](CC(=O)N(CCO)Cc1ccccc1)C(=O)NC[C@H](OC(=O)[C@@H](CC=C)CC(=O)OC(C)(C)C)c1ccccc1`, for which the result was inactive and the inhibition is 76.8%. Besides, the IC50 under setting [1] was 31 µM. This compound also yielded an IC50 (CXCR6, run 1, dose range 2) of 33.1 µM. The compound also came in with an IC50 (CXCR6, run 2, dose range 2) of 29 µM.
`O=[N+]([O-])c1ccc(N/N=C/c2sc(N3CCOCC3)nc2-c2ccccc2)c(S(=O)(=O)Nc2ccccc2Cl)c1`: the result was inactive and the inhibition was found to be 95.7%. For the same compound, the IC50 under setting [1] is 27.6 µM. Also, where the note is “CXCR6, run 1, dose range 2”, the IC50 came out at 27.6 µM. The compound further registered an IC50 (CXCR6, run 2, dose range 2) of over 79 µM.
As for `COc1ccc(-n2nnnc2S(=O)(=O)CC(=O)N2CCCCC2)cc1`, the result was inactive and the inhibition was 97.5%. For the same compound, the IC50 under setting [1] amounted to 19 µM. Where the note is “CXCR6, run 1, dose range 2”, this compound showed an IC50 of 19.3 µM. The concentration for half-maximal inhibition (IC50) (CXCR6, run 2, dose range 2) amounted to 18.8 µM.
On the same counts, the results for `CC(=O)Nc1ccc2c(c1)Cc1cc(N3C(=O)C=CC3=O)ccc1-2` are “inactive”, 112%, 14.8 µM, 15.3 µM and 14.3 µM.
For `Cc1cc(C)cc(N2C(=O)CC(Sc3nnnn3-c3ccccc3)C2=O)c1` (stereo not given) the same measures were “inactive”, 113%, 14.5 µM, 13.9 µM and 15.2 µM.
For `CCCNC(=O)c1nnsc1S(=O)(=O)c1ccc(Cl)cc1` the same measures were “inactive”, 112%, 14.1 µM, 13.8 µM and 14.3 µM.
